# Reference: patent US6737383B1, “Herbicidal oxadiazolidines” (priority 1999, dated 2004)
# Key:
# bedstraw = assay: Test B pre/postemergence bedstraw; assay type: in vivo, Galium aparine
# In short: (§1)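 Test chemicals in a non-phytotoxic solvent mixture with surfactant were sprayed preemergence onto planted seeds and postemergence onto plants 2 to 18 cm tall (1- to 4-leaf stage). After twelve to sixteen days in a greenhouse, injury was visually rated against untreated controls from 0 (no effect) to 10 (complete control).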
# blackgrass [1] = assay: Test B pre/postemergence blackgrass; assay type: in vivo, Alopecurus myosuroides
# In short: as §1
# surinam grass [2] = assay: Test B pre/postemergence surinam grass; assay type: in vivo, Brachiaria decumbens
# In short: as §1
# bamyardgrass = assay: Test B flood test barnyardgrass; assay type: in vivo, Echinochloa crus-galli
# In short: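 Read-out is a visual response score from 0 (no effect) to 10 (complete control), assigned by comparison with untreated controls. Treatment was applied at the 2-leaf stage, and plants stayed in the greenhouse for twelve to sixteen days before scoring.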
# common ragweed = assay: Test D common ragweed; assay type: in vivo, Ambrosia elatior; details: Preemergence, 0 to 100 scale
# Description: (§2) Seeds, tubers, or plant parts of Alexandergrass (Brachiaria plantaginea), bermuda-grass (Cynodon dactylon), common pursiane (Portulaca oleracea), common ragweed (Ambrosia elatior), common groundsel (Senecio vulgaris), dallisgrass (Paspalum dilatatum), goosegrass (Eleusine indica), guineagrass (Panicum maximum), itchgrass (Rottboellia exaltata), Johnson grass (Sorghum halepense), large crabgrass (Digitaria sanguinalis), pitted morningglory (Ipomoea lacunosa), purple nutsedge (Cyperus rotundus), sandbur (Cenchrus echinatus), sourgrass (Trichachne insularis), Spanishneedles (Bidens bipinnata), surinam grass (Brachiaria decumbens) and tall mallow (Malva sylvestris) were planted into greenhouse pots of flats containing greenhouse planting medium. Plant species were grown in separate pots or individual compartments. Preemergence applications were made within one day of planting the seed or plant part.
# (§3) Test chemicals were formulated in a non-phytotoxic solvent mixture which included a surfactant and applied preemergence to the surface of the pot containing seeds in a sandy loam soil. Untreated control pots and treated pots were placed in the greenhouse for growth and visually evaluated for injury 14 to 21 days after herbicide application. Plant response ratings, summarized in Table C, are based on a 0 to 100 scale where 0 is no injury and 100 is complete control. A dash (−) response means no test result.
# dallisgrass = assay: Test D dallisgrass; assay type: in vivo, Paspalum dilatatum; details: Preemergence, 0 to 100 scale
# Description: as §2, §3
# goosegrass = assay: Test D goosegrass; assay type: in vivo, Eleusine indica; details: Preemergence, 0 to 100 scale
# In short: (§4)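 Weed seeds planted in sandy loam; species kept apart in individual pots or compartments. Preemergence tests: treatment to soil surface within one day. Greenhouse growth, then visual injury scoring at 14–21 days (0–100).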
# large crabgrass = assay: Test D large crabgrass; assay type: in vivo, Digitaria sanguinalis; details: Preemergence, 0 to 100 scale
# In short: as §4
# surinam grass [3] = assay: Test D surinam grass; assay type: in vivo, Brachiaria decumbens; details: Preemergence, 0 to 100 scale
# In short: as §4
# Green foxtail [4] = assay: Test D green foxtail; assay type: in vivo; details: Rate 32 g/ha; Preemergence; 0 to 100 scale, 0 no injury, 100 complete control
# Description: as §2, §3
# winter wheat [5] = assay: Test E winter wheat; assay type: in vivo, Triticum aestivum; details: Postemergence; for Plant response rating, Wheat (winter): 0 to 100 scale, 0 is no effect, 100 is complete control
# In short: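 Each compound, carried in a non-phytotoxic solvent blend including surfactant, was applied (postemergence: over the top of young plants at 1- to 4-leaf stage). Plants stayed in the greenhouse about 21 to 28 days before visual comparison with untreated controls.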
# blackgrass [6] = assay: Test E blackgrass; assay type: in vivo, Alopecurus myosuroides; details: Preemergence
# green foxtail [7] = assay: Test E green foxtail; assay type: in vivo, Setaria viridis; details: Preemergence
# Italian ryegrass = assay: Test E Italian ryegrass; assay type: in vivo, Lolium multiflorum; details: Preemergence
# winter wheat [8] = assay: Test E winter wheat; assay type: in vivo, Triticum aestivum; details: Preemergence
# wild oat = assay: Test E wild oat; assay type: in vivo, Avena fatua; details: Preemergence
# winter barley = assay: Test E winter barley; assay type: in vivo, Hordeum vulgare; details: Preemergence
# [9] = Postemergence, Rate 62 g/ha, scale 0 to 10, 0 is no effect, 10 is complete control
# [10] = Postemergence, Rate 250 g/ha, scale 0 to 10, 0 no effect, 10 complete control
# [11] = Preemergence, Rate 62 g/ha, scale 0 to 10, 0 is no effect, 10 is complete control
# [12] = Preemergence, Rate 125 g/ha, scale 0 to 10 (0 no effect, 10 complete control)
# [13] = Preemergence, Rate 250 g/ha, scale of 0 to 10 where 0 is no effect and 10 is complete control
# [14] = Preemergence, Rate 500 g/ha, scale 0 (no effect) to 10 (complete control)
# [15] = Rate 125 g/ha, Postemergence, scale 0 to 10, 0 no effect, 10 complete control
# [16] = Rate 500 g/ha, Postemergence, 0 to 10 scale (0 no effect, 10 complete control)
# [17] = Rate 32 g/ha, 0 no injury, 100 complete control
# [18] = Rate 64 g/ha, 0 no injury, 100 complete control
# [19] = Rate 125 g/ha, 0 no injury, 100 complete control
# [20] = Preemergence, Rate 62 g/ha, scale of 0 to 10 where 0 is no effect and 10 is complete control
# [21] = Preemergence, Rate 500 g/ha, scale of 0 to 10 where 0 is no effect and 10 is complete control
# [22] = Rate 62 g/ha, Postemergence, scale of 0 to 10 where 0 is no effect and 10 is complete control
# [23] = Rate 125 g/ha, Postemergence, scale of 0 to 10 where 0 is no effect and 10 is complete control
# [24] = Rate 125 g/ha, Preemergence, scale of 0 to 10 where 0 is no effect and 10 is complete control
# [25] = Rate 250 g/ha, Postemergence, scale of 0 to 10 where 0 is no effect and 10 is complete control
# [26] = Rate 500 g/ha, Postemergence, scale 0 to 10, 0 no effect, 10 complete control
# [27] = Rate 125 g/ha, 0 to 100 scale (0 no effect, 100 complete control)
# [28] = Rate 500 g/ha, 0 to 100 scale where 0 is no effect and 100 is complete control
compound,measurement,setting,value
CCc1ccccc1-n1c(=O)on(C(=O)N(c2ccc(F)cc2)C(C)C)c1=O [Compound 34],Bedstraw plant response rating,bedstraw; [9],4
same,Bedstraw plant response rating,bedstraw; [10],6
same,"Plant response rating, Bedstraw",bedstraw; [11],0
same,"Plant response rating, Bedstraw",bedstraw; [12],0
same,"Plant response rating, Bedstraw",bedstraw; [13],0
same,Bedstraw plant response rating,bedstraw; [14],0
same,Bedstraw plant response rating,bedstraw; [15],4
same,Bedstraw plant response rating,bedstraw; [16],7
same,Blackgrass plant response rating,blackgrass [1]; [9],0
same,Blackgrass plant response rating,blackgrass [1]; [10],6
same,"Plant response rating, Blackgrass",blackgrass [1]; [11],3
same,"Plant response rating, Blackgrass",blackgrass [1]; [12],5
same,"Plant response rating, Blackgrass",blackgrass [1]; [13],6
same,Blackgrass plant response rating,blackgrass [1]; [14],6
same,Blackgrass plant response rating,blackgrass [1]; [15],2
same,Blackgrass plant response rating,blackgrass [1]; [16],9
same,B. signalgrass plant response rating,surinam grass [2]; [9],0
same,B. signalgrass plant response rating,surinam grass [2]; [10],0
same,"Plant response rating, B. signalgrass",surinam grass [2]; [11],0
same,"Plant response rating, B. signalgrass",surinam grass [2]; [12],1
same,"Plant response rating, B. signalgrass",surinam grass [2]; [13],2
same,B. signalgrass plant response rating,surinam grass [2]; [14],3
same,B. signalgrass plant response rating,surinam grass [2]; [15],0
same,B. signalgrass plant response rating,surinam grass [2]; [16],0
same,Barnyardgrass plant response rating,bamyardgrass; [9],0
same,Barnyardgrass plant response rating,"bamyardgrass; Rate 125 g/ha, Postemergence section (flood test species), scale 0 to 10, 0 no effect, 10 complete control",0
same,Barnyardgrass plant response rating,"bamyardgrass; Rate 500 g/ha, Postemergence section of Table B, 0 to 10 scale (0 no effect, 10 complete control)",0
same,Barnyardgrass plant response rating,"bamyardgrass; flood test, listed under Postemergence, Rate 250 g/ha, scale 0 to 10, 0 no effect, 10 complete control",0
same,"Plant response rating, C. ragweed",common ragweed; [17],0
same,"Plant response rating, C. ragweed",common ragweed; [18],0
same,"Plant response rating, C. ragweed",common ragweed; [19],0
same,"Plant response rating, C. ragweed",common ragweed; Rate 250 g/ha,0
same,"Plant response rating, Dallisgrass",dallisgrass; [17],0
same,"Plant response rating, Dallisgrass",dallisgrass; [18],80
same,"Plant response rating, Dallisgrass",dallisgrass; [19],98
same,"Plant response rating, Dallisgrass",dallisgrass; Rate 250 g/ha,100
same,"Plant response rating, Goosegrass",goosegrass; [17],0
same,"Plant response rating, Goosegrass",goosegrass; [18],75
same,"Plant response rating, Goosegrass",goosegrass; [19],85
same,"Plant response rating, Goosegrass",goosegrass; Rate 250 g/ha,98
same,Plant response rating Large crabgrass,large crabgrass; [17],85
same,Plant response rating Large crabgrass,large crabgrass; [18],98
same,Plant response rating Large crabgrass,large crabgrass; [19],100
same,Plant response rating Large crabgrass,large crabgrass; Rate 250 g/ha,100
same,Plant response rating Surinam grass,surinam grass [3]; [17],0
same,Surinam grass plant response rating,surinam grass [3]; [18],0
same,Surinam grass plant response rating,surinam grass [3]; [19],0
same,Plant response rating Surinam grass,surinam grass [3]; Rate 250 g/ha,20
same,"Plant response rating, Green foxtail",Green foxtail [4],0
CC(C)N(C(=O)n1oc(=O)n(CC(C)(C)C)c1=O)c1ccccc1 [Compound 276],Bedstraw plant response rating,bedstraw; [20],0
same,Bedstraw plant response rating,bedstraw; [13],0
same,"Plant response rating, Bedstraw",bedstraw; [21],0
same,Bedstraw plant response rating,bedstraw; [22],0
same,Bedstraw plant response rating,bedstraw; [23],0
same,Bedstraw plant response rating,bedstraw; [24],0
same,"Plant response rating, Bedstraw",bedstraw; [25],3
same,Bedstraw plant response rating,bedstraw; [26],3
same,Blackgrass plant response rating,blackgrass [1]; [13],10
same,"Plant response rating, Blackgrass",blackgrass [1]; [21],10
same,Blackgrass plant response rating,blackgrass [1]; [22],0
same,Blackgrass plant response rating,blackgrass [1]; [23],1
same,Blackgrass plant response rating,blackgrass [1]; [24],6
same,"Plant response rating, Blackgrass",blackgrass [1]; [25],4
same,Blackgrass plant response rating,blackgrass [1]; [26],8
same,B. signalgrass plant response rating,surinam grass [2]; [20],4
same,B. signalgrass plant response rating,surinam grass [2]; [13],10
same,"Plant response rating, B. signalgrass",surinam grass [2]; [21],10
same,B. signalgrass plant response rating,surinam grass [2]; [22],0
same,B. signalgrass plant response rating,surinam grass [2]; [23],0
same,B. signalgrass plant response rating,surinam grass [2]; [24],7
same,"Plant response rating, B. signalgrass",surinam grass [2]; [25],0
same,B. signalgrass plant response rating,surinam grass [2]; [26],0
same,Barnyardgrass plant response rating,"bamyardgrass; Rate 62 g/ha, headed Pre-emergence (flood test species), scale 0 to 10 (0 no effect, 10 complete control)",1
same,Barnyardgrass plant response rating,"bamyardgrass; Rate 125 g/ha, Pre-emergence, flood test species, scale 0 to 10 where 0 is no effect and 10 is complete control",6
same,Barnyardgrass plant response rating,"bamyardgrass; Rate 250 g/ha, Pre-emergence, flood-test species, scale 0 to 10, 0 is no effect, 10 is complete control",8
same,Barnyardgrass plant response rating,"bamyardgrass; Rate 500 g/ha, Pre-emergence, flood test species, scale 0 to 10 (0 no effect, 10 complete control)",8
same,"Plant response rating, Wheat (winter)",winter wheat [5]; Rate 125 g/ha,10
same,Wheat (winter) plant response rating,"winter wheat [5]; Rate 250 g/ha, 0 to 100 scale where 0 is no effect and 100 is complete control",10
same,"Plant response rating, Wheat (winter)",winter wheat [5]; Rate 500 g/ha,20
same,"Plant response rating, Blackgrass",blackgrass [6]; [27],30
same,Blackgrass plant response rating (0 to 100 scale),blackgrass [6]; Rate 250 g/ha,50
same,"Plant response rating, Blackgrass",blackgrass [6]; [28],50
same,"Plant response rating, Green foxtail",green foxtail [7]; [27],60
same,Green foxtail plant response rating (0 to 100 scale),green foxtail [7]; Rate 250 g/ha,100
same,"Plant response rating, Green foxtail",green foxtail [7]; [28],98
same,"Plant response rating, I. Ryegrass",Italian ryegrass; [27],30
same,I. Ryegrass plant response rating (0 to 100 scale),Italian ryegrass; Rate 250 g/ha,60
same,"Plant response rating, I. Ryegrass",Italian ryegrass; [28],50
same,"Plant response rating, Wheat (winter)",winter wheat [8]; [27],20
same,Wheat (winter) plant response rating (0 to 100 scale),winter wheat [8]; Rate 250 g/ha,30
same,"Plant response rating, Wheat (winter)",winter wheat [8]; [28],50
same,"Plant response rating, Wild oat",wild oat; [27],50
same,Wild oat plant response rating (0 to 100 scale),wild oat; Rate 250 g/ha,60
same,"Plant response rating, Wild oat",wild oat; [28],60
same,"Plant response rating, Barley (winter)",winter barley; [27],50
same,Barley (winter) plant response rating (0 to 100 scale),winter barley; Rate 250 g/ha,30
same,"Plant response rating, Barley (winter)",winter barley; [28],50
